Values of other authors as cited in the PKSmart pharmacokinetics tables (Seal et al. 2025).

Key:
[1] = Lombardo et al. 2013, J Clin Pharmacol 53:178, doi 10.1177/0091270012440282; conditions: for Vd / clearance: in vivo, iv; for fraction unbound: plasma
[2] = Lombardo, Berellini, Obach 2018, Drug Metab Dispos 46:1466, doi 10.1124/dmd.118.082966; conditions: human; for MRT / Vd / half-life / clearance: in vivo, iv; for fraction unbound: plasma

| SMILES | Vd ([1]; dog) | clearance ([1]; dog) | fraction unbound ([1]; dog) | Vd ([1]; monkey) | clearance ([1]; monkey) | fraction unbound ([1]; monkey) | Vd ([1]; rat) | clearance ([1]; rat) | fraction unbound ([1]; rat) | MRT [2] | Vd [2] | half-life [2] | clearance [2] | fraction unbound [2] |
| --- | --- | --- | --- | --- | --- | --- | --- | --- | --- | --- | --- | --- | --- | --- |
| COCCOC(=O)C1=C(C)NC(C)=C(C(=O)OC(C)C)C1c1cccc([N+](=O)[O-])c1 (stereo unspecified) | 3 L/kg | 18 mL/min/kg | 0.03 | 3.62 L/kg | 33 mL/min/kg | 0.095 | 5.5 L/kg | 19.6 mL/min/kg | 0.03 | 1.2 h | 1.1 L/kg | 1.3 h |  |  |
| C#C[C@]1(O)CC[C@H]2[C@@H]3CCc4cc(O)ccc4[C@H]3CC[C@@]21C | 17 L/kg | 25 mL/min/kg |  | 7.2 L/kg | 36 mL/min/kg | 0.0099 | 5.7 L/kg | 55 mL/min/kg | 0.0088 | 11 h | 4.3 L/kg | 9.7 h | 7 mL/min/kg | 0.014 |
| CC(C)NCC(O)COc1ccc(CCOCC2CC2)cc1 (stereo unspecified) | 8.2 L/kg | 20 mL/min/kg | 0.47 |  |  |  | 12 L/kg | 154 mL/min/kg | 0.54 | 24 h | 4.8 L/kg | 17 h | 3.4 mL/min/kg |  |
| COC(=O)C1=C(C)NC(C)=C(C(=O)OCCN(C)Cc2ccccc2)C1c1cccc([N+](=O)[O-])c1 (stereo unspecified) | 2.39 L/kg |  | 0.062 | 1.23 L/kg |  | 0.06 | 1.9 L/kg |  | 0.084 | 1.5 h | 1 L/kg | 4.1 h |  |  |
| CC(C)(C)NC(=O)C1CC[C@H]2[C@@H]3CC[C@H]4NC(=O)C=C[C@]4(C)[C@H]3CC[C@]12C (stereo partly specified) |  |  | 0.18 |  |  |  |  |  |  | 7.6 h | 1.1 L/kg | 6 h |  |  |
| Cc1nnc2n1-c1ccc(Cl)cc1C(c1ccccc1Cl)=NC2 |  |  |  |  |  |  | 3.4 L/kg |  |  | 3.2 h | 0.58 L/kg | 2.7 h |  |  |
| COc1cccc([C@@]2(O)CCCC[C@@H]2CN(C)C)c1 | 3.01 L/kg | 54.6 mL/min/kg | 0.745 |  |  |  | 3.86 L/kg | 63.5 mL/min/kg | 0.75 | 7.2 h | 2.8 L/kg | 5.8 h | 6.5 mL/min/kg |  |
| NC1(C(=O)O)CC1 | 0.7 L/kg | 0.4 mL/min/kg |  | 0.72 L/kg | 3.1 mL/min/kg |  | 0.64 L/kg | 3.2 mL/min/kg |  | 7.8 h | 0.73 L/kg | 5.9 h | 1.5 mL/min/kg |  |
| COC(=O)C1[C@@H](OC(=O)c2ccccc2)C[C@@H]2CC[C@H]1N2C (stereo partly specified) | 2.6 L/kg | 48.7 mL/min/kg | 0.76 |  |  |  | 16.4 L/kg | 253 mL/min/kg | 0.78 | 1 h | 2 L/kg | 0.76 h | 32 mL/min/kg | 0.12 |
| COc1cc(NCc2ccc3nc(N)nc(N)c3c2C)cc(OC)c1OC | 11.7 L/kg | 33.2 mL/min/kg | 1 | 1.56 L/kg | 8.5 mL/min/kg | 0.1 | 9.2 L/kg | 71.1 mL/min/kg |  | 17 h | 0.77 L/kg | 17 h | 0.77 mL/min/kg | 0.05 |
| CON=C(C(=O)NC1C(=O)N2C(C(=O)O)=C(COC(N)=O)CS[C@H]12)c1ccco1 (stereo partly specified) | 1.5 L/kg | 5 mL/min/kg |  |  |  |  |  |  |  | 1.1 h | 0.15 L/kg | 1.1 h | 2.2 mL/min/kg |  |
| COc1cc2c(c(OC)c1OC)-c1ccc(OC)c(=O)cc1[C@@H](NC(C)=O)CC2 |  |  |  |  |  |  | 31.4 L/kg | 34.3 mL/min/kg |  | 49 h | 6.1 L/kg | 58 h | 2.1 mL/min/kg |  |
| Nc1nc(N)c2nc(-c3ccccc3)c(N)nc2n1 |  |  |  |  |  |  | 2.2 L/kg | 10.1 mL/min/kg |  | 3.4 h | 13 L/kg | 4.3 h | 63 mL/min/kg | 0.42 |
| Nc1ccn([C@H]2CC[C@@H](CO)O2)c(=O)n1 |  |  |  | 0.98 L/kg | 10.3 mL/min/kg |  | 1 L/kg | 11.2 mL/min/kg | 0.85 |  |  |  |  | 0.96 |
| COC(=O)C(c1ccccc1)C1CCCCN1 (stereo unspecified) |  |  |  |  |  |  | 3 L/kg | 53 mL/min/kg |  | 4.5 h | 2.2 L/kg | 4.8 h | 9.42 mL/min/kg | 0.85 |
| C#CCCCC(=O)c1cc(C(C)(C)C)c(O)c(C(C)(C)C)c1 | 24.8 L/kg | 30.9 mL/min/kg |  | 10.4 L/kg | 14.9 mL/min/kg |  | 7.9 L/kg | 41.4 mL/min/kg |  | 22.3 h | 12 L/kg | 50.7 h | 8.9 mL/min/kg |  |
| CON=C(C(=O)NC1C(=O)N2C(C(=O)O)=C(CSc3nc(C)c(CC(=O)O)s3)CS[C@H]12)c1csc(N)n1 (stereo partly specified) | 0.26 L/kg | 4.1 mL/min/kg | 0.243 | 0.15 L/kg | 1.2 mL/min/kg | 1 | 0.18 L/kg | 1.1 mL/min/kg | 0.0097 | 1.5 h | 0.054 L/kg | 4.2 h | 0.61 mL/min/kg | 0.18 |
| CC1CC(=O)NN=C1c1ccc(NN=C(C#N)C#N)cc1 (stereo unspecified) | 0.22 L/kg | 3.37 mL/min/kg |  |  |  |  |  |  |  | 1.1 h | 0.24 L/kg | 1.1 h | 3.8 mL/min/kg | 0.02 |
| C=c1cc(C)[nH]c1=Cc1c(O)[nH]c2ccccc12 | 1.4 L/kg | 52 mL/min/kg |  | 1.63 L/kg | 27.7 mL/min/kg |  | 1.6 L/kg | 45 mL/min/kg | 0.007 | 1.17 h | 0.98 L/kg | 0.83 h | 14 mL/min/kg | 0.008 |
